Here are results for eleven compounds from patent publication US20260193264A1, “BENZOYPARAZINE PYRAZINES AND THEIR USES” (FOGHORN THERAPEUTICS INC., priority 2022, published 2026).

Assay [1] addresses T1, HiBiT-BRM fusion protein in stable HeLa cell line (Homo sapiens, UniProt P51531).
T1 construct: expressed in transfected cells
The assay is described as follows: HiBiT-BRM cell-based degradation assay (Nano-Glo HiBiT Lytic Detection, 24 h). More on the design: DC50: scale not given here. The conditions noted are these: HeLa HiBiT-BRM cells; for DC50: read-out: BRM HiBit Degradation IC50; for BRM HiBit Degradation Maximum (%): top dose 30 μM. The method in brief: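 Percent degradation was scaled between DMSO-treated cells and cells given 2 μM of a known BRM/BRG1 degrader. Readout was NanoBiT luminescence after lytic detection. HeLa cells stably expressing HiBiT-BRM were dosed for 24 h, 10 points, 3-fold steps from 30 μM final, in duplicate.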

Assay [2] deals with T2, HiBit-BRG1 fusion protein in stable HeLa cell line expressing HiBit-BRG1 and LgBit (Homo sapiens, UniProt P51532).
T2 construct: expressed in transfected cells
Briefly: HiBiT-BRG1 cell-based degradation assay (Nano-Glo HiBiT, 24 h). The conditions noted are these: HeLa HiBit-BRG1/LgBit cells; for DC50: read-out: BRMG1 HiBit Degradation IC50; for Dmax: top dose 30 μM, read-out: BRG1 HiBit Degradation Maximum (%). An outline of the steps: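 Degradation calculated from NanoBiT luminescence relative to DMSO-treated cells (high) and cells given 2 μM known BRM/BRG1 degrader (low). HeLa cells stably expressing HiBiT-BRG1 plus LgBiT were exposed to compound for 24 h before lytic HiBiT detection.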

T1 sequence (P51531 whole entry, the tested form may be a part): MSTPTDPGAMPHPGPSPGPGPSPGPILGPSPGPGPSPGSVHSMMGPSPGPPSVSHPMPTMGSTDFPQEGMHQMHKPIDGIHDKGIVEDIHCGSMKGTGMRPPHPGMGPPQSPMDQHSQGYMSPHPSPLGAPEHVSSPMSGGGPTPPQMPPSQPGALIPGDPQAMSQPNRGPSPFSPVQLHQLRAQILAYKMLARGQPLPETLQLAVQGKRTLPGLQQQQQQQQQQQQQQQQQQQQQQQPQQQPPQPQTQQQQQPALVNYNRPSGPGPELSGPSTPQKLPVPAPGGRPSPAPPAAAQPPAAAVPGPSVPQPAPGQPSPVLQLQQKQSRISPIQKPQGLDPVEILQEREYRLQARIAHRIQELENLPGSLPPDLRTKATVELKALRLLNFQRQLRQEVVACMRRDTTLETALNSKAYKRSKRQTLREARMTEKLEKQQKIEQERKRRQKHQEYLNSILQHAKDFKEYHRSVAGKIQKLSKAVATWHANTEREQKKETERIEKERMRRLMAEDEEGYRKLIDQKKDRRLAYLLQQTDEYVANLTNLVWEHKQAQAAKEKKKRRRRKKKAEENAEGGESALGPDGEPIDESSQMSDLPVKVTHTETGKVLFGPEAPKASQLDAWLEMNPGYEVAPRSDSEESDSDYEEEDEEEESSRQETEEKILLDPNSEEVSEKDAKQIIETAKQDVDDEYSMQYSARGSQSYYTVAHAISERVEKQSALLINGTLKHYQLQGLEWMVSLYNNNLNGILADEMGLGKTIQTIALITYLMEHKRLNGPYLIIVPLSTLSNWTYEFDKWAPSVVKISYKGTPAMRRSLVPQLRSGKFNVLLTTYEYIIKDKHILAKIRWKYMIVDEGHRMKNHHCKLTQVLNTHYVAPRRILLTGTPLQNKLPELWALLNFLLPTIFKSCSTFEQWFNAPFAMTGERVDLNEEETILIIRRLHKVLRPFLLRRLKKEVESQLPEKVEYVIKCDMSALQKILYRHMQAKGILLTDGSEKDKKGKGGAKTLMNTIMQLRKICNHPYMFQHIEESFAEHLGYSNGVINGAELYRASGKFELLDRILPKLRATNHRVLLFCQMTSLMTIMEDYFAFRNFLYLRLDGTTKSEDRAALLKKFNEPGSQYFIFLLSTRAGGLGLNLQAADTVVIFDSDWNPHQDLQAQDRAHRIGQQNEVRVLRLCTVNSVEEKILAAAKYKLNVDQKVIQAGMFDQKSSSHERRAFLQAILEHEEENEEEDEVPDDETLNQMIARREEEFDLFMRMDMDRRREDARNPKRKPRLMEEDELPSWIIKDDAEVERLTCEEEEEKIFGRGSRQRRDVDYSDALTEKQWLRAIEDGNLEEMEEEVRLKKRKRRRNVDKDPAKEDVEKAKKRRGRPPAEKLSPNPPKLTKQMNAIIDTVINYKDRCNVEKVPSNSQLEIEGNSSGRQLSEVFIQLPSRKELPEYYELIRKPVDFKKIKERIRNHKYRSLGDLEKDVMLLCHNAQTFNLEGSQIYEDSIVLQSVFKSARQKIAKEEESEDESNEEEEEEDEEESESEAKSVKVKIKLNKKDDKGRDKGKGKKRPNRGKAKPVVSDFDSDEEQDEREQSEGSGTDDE
T2 sequence (P51532 whole entry, the tested form may be a part): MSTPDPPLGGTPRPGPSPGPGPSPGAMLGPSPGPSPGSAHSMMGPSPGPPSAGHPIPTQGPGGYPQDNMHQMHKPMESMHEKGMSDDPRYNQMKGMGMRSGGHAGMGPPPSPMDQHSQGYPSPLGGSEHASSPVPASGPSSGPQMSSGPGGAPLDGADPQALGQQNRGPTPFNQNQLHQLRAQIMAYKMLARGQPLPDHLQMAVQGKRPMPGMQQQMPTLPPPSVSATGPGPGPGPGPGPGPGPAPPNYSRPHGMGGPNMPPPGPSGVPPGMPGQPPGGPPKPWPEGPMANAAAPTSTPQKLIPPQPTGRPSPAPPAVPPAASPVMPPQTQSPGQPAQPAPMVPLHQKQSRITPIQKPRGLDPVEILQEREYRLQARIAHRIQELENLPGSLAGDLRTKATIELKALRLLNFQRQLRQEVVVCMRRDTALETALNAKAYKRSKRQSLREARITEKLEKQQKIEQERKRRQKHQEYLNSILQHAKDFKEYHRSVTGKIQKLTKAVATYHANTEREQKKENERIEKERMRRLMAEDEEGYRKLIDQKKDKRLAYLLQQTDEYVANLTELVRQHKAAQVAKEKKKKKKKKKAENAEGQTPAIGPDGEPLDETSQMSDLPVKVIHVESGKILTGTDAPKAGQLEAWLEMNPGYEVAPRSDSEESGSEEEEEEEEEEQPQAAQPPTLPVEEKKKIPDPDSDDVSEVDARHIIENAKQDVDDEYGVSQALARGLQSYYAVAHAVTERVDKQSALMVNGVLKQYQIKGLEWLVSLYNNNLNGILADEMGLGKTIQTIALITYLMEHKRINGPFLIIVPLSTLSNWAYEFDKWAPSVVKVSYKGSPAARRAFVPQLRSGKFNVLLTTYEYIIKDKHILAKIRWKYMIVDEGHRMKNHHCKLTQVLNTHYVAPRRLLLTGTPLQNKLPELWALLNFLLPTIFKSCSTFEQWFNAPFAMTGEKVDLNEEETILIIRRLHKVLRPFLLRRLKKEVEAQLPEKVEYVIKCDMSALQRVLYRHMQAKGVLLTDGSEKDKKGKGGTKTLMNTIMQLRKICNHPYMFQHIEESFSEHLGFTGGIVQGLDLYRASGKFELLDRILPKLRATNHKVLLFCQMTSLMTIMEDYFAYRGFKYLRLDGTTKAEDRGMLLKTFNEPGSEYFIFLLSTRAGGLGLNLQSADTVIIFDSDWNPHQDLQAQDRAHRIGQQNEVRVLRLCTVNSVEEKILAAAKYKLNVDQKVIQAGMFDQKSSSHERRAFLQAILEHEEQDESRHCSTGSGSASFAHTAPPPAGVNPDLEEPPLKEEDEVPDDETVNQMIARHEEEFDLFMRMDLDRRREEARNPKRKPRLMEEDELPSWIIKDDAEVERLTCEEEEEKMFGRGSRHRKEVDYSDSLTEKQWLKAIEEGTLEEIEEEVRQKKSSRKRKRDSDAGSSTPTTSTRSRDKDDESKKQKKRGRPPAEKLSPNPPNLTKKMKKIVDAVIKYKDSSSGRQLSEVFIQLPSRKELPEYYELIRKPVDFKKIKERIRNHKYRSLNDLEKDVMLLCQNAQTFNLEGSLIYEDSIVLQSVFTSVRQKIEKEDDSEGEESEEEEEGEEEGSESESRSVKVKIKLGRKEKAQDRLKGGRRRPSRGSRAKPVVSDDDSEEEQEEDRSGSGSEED

`Cc1ncsc1-c1ccc([C@H](C)NC(=O)[C@@H]2C[C@@H](O)CN2C(=O)[C@H](C(C)C)n2cc(-c3cc4cc(-c5ccccc5O)nnc4cc3C(F)F)nn2)cc1` [Compound 171, (2S,4R)-1-((S)-2-(4-(7-(difluoromethyl)-3-(2-hydroxyphenyl)cinnolin-6-yl)-1H-1,2,3-triazol-1-yl)-3-methylbutanoyl)-4-hydroxy-N-((S)-1-(4-(4-methylthiazol-5-yl)phenyl)ethyl)pyrrolidine-2-carboxamide]: in assay [1], the DC50 was < 0.01 µM and the “BRM HiBit Degradation Maximum (%)” value is given as “A (“A” indicates maximum degradation ≥75%)”. Further, in assay [2], the DC50 is < 0.01 µM and the Dmax is > 75%.
As for `Cc1ncsc1-c1ccc([C@H](C)NC(=O)[C@@H]2C[C@@H](O)CN2C(=O)[C@H](C(C)C)n2cc(N3CC4(CN(c5ccc6nnc(-c7ccccc7O)cc6c5)C4)C3)nn2)cc1` [Compound 172, (2S,4R)-4-hydroxy-1-((S)-2-(4-(6-(3-(2-hydroxyphenyl)cinnolin-6-yl)-2,6-diazaspiro[3.3]heptan-2-yl)-1H-1,2,3-triazol-1-yl)-3-methylbutanoyl)-N-((S)-1-(4-(4-methylthiazol-5-yl)phenyl)ethyl)pyrrolidine-2-carboxamide], in assay [1], the DC50 is < 0.01 µM and the “BRM HiBit Degradation Maximum (%)” value is recorded as “A (“A” indicates maximum degradation ≥75%)”. In assay [2], the DC50 is < 0.01 µM and the Dmax is > 50%.
Regarding `Cc1ncsc1-c1ccc([C@H](C)NC(=O)[C@@H]2C[C@@H](O)CN2C(=O)[C@@H](c2cc(N3CC4(CN(c5cc(C#N)c6cc(-c7ccccc7O)nnc6c5)C4)C3)no2)C(C)C)cc1` [Compound 173, (2S,4R)-1-((R)-2-(3-(6-(5-cyano-3-(2-hydroxyphenyl)cinnolin-7-yl)-2,6-diazaspiro [3.3]heptan-2-yl)isoxazol-5-yl)-3-methylbutanoyl)-4-hydroxy-N-((S)-1-(4-(4-methylthiazol-5-yl)phenyl)ethyl)pyrrolidine-2-carboxamide], in assay [1], the DC50 is > 0.01 µM and the “BRM HiBit Degradation Maximum (%)” value is reported as “B (“B” indicates maximum degradation ≥50%)”. Also, the Dmax in assay [2] is < 50%.
The like results for `Cc1ncsc1-c1ccc([C@H](C)NC(=O)[C@@H]2C[C@@H](O)CN2C(=O)[C@@H](c2cccc(N3CC4(C3)CN(c3ccc5cc(-c6ccccc6O)nnc5c3)C4)c2)C(C)C)cc1` [Compound 174, (2S,4R)-4-hydroxy-1-((R)-2-(3-(6-(3-(2-hydroxyphenyl)cinnolin-7-yl)-2,6-diazaspiro[3.3]heptan-2-yl)phenyl)-3-methylbutanoyl)-N—((S)-1-(4-(4-methylthiazol-5-yl)phenyl)ethyl)pyrrolidine-2-carboxamide] were, in that order, > 0.01 µM, “A (“A” indicates maximum degradation ≥75%)” and < 50%.
For `Cc1ncsc1-c1ccc([C@H](C)NC(=O)[C@@H]2C[C@@H](O)CN2C(=O)[C@@H](c2ccnc(N3CC4(CN(c5ccc6cc(-c7ccccc7O)nnc6c5)C4)C3)c2)C(C)C)cc1` [Compound 175, (2S,4R)-4-hydroxy-1-[(2R)-2-(2-{6-[3-(2-hydroxyphenyl)cinnolin-7-yl]-2,6-diazaspiro[3.3]heptan-2-yl}pyridin-4-yl)-3-methylbutanoyl]-N-[(1S)-1-[4-(4-methyl-1,3-thiazol-5-yl)phenyl]ethyl]pyrrolidine-2-carboxamide], in assay [1], the DC50 was > 0.01 µM and the “BRM HiBit Degradation Maximum (%)” value is “A (“A” indicates maximum degradation ≥75%)”. Further, the Dmax in assay [2] is < 50%.
For `Cc1ncsc1-c1ccc([C@H](C)NC(=O)[C@@H]2C[C@@H](O)CN2C(=O)[C@H](C(C)C)n2cc(-c3cc4cc(-c5ccccc5O)nnc4cc3F)nn2)cc1` [Compound 176, (2S,4R)-1-((S)-2-(4-(7-fluoro-3-(2-hydroxyphenyl)cinnolin-6-yl)-1H-1,2,3-triazol-1-yl)-3-methylbutanoyl)-4-hydroxy-N-((S)-1-(4-(4-methylthiazol-5-yl)phenyl)ethyl)pyrrolidine-2-carboxamide], in assay [1], the DC50 is < 0.01 µM and the “BRM HiBit Degradation Maximum (%)” value is reported as “A (“A” indicates maximum degradation ≥75%)”. Also, in assay [2], the DC50 was < 0.01 µM and the Dmax was > 75%.
As to `CC(C)[C@@H](C(=O)N1C[C@H](O)C[C@H]1C(=O)N[C@@H](C)c1ccc(F)cc1)n1cc(-c2ccc3nnc(-c4cccc(F)c4O)cc3c2)nn1` [Compound 177, (2S,4R)-1-((S)-2-(4-(3-(3-fluoro-2-hydroxyphenyl)cinnolin-6-yl)-1H-1,2,3-triazol-1-yl)-3-methylbutanoyl)-N-((S)-1-(4-fluorophenyl)ethyl)-4-hydroxypyrrolidine-2-carboxamide], in assay [1], the DC50 is < 0.01 µM and the “BRM HiBit Degradation Maximum (%)” value is given as “A (“A” indicates maximum degradation ≥75%)”. Besides, in assay [2], the DC50 was > 0.01 µM and the Dmax is > 75%.
As for `CC(C)[C@@H](C(=O)N1C[C@H](O)C[C@H]1C(=O)N[C@@H](C)c1ccc(Br)cc1)n1cc(-c2ccc3nnc(-c4cccc(F)c4O)cc3c2)nn1` [Compound 178, (2S,4R)-N-((S)-1-(4-bromophenyl)ethyl)-1-((S)-2-(4-(3-(3-fluoro-2-hydroxyphenyl)cinnolin-6-yl)-1H-1,2,3-triazol-1-yl)-3-methylbutanoyl)-4-hydroxypyrrolidine-2-carboxamide], in assay [1], the DC50 is < 0.01 µM and the “BRM HiBit Degradation Maximum (%)” value was “A (“A” indicates maximum degradation ≥75%)”. In assay [2], the DC50 is > 0.01 µM and the Dmax was > 75%.
For the compound `Cc1ncsc1-c1ccc([C@H](C)NC(=O)[C@@H]2C[C@@H](O)CN2C(=O)[C@@H](c2cc(N3CC4(C3)CN(c3cc5nnc(-c6ccccc6O)cc5cc3F)C4)no2)C(C)C)cc1` [Compound 179, (2S,4R)-1-((R)-2-(3-(6-(6-fluoro-3-(2-hydroxyphenyl)cinnolin-7-yl)-2,6-diazaspiro [3.3]heptan-2-yl)isoxazol-5-yl)-3-methylbutanoyl)-4-hydroxy-N-((S)-1-(4-(4-methylthiazol-5-yl)phenyl)ethyl)pyrrolidine-2-carboxamide], in assay [1], the DC50 was < 0.01 µM and the “BRM HiBit Degradation Maximum (%)” value is “A (“A” indicates maximum degradation ≥75%)”. Further, in assay [2], the Dmax is < 50%.
For `Cc1ncsc1-c1ccc([C@H](C)NC(=O)[C@@H]2C[C@@H](O)CN2C(=O)[C@@H](c2cc(N3CC4(C3)CN(c3cc5nnc(-c6cccc(F)c6O)cc5cc3C3CC3)C4)no2)C(C)C)cc1` [Compound 180, (2S,4R)-1-((R)-2-(3-(6-(6-cyclopropyl-3-(3-fluoro-2-hydroxyphenyl)cinnolin-7-yl)-2,6-diazaspiro[3.3]heptan-2-yl)isoxazol-5-yl)-3-methylbutanoyl)-4-hydroxy-N-((S)-1-(4-(4-methylthiazol-5-yl)phenyl)ethyl)pyrrolidine-2-carboxamide], in assay [1], the DC50 was < 0.01 µM and the “BRM HiBit Degradation Maximum (%)” value is given as “A (“A” indicates maximum degradation ≥75%)”. For the same compound, the Dmax in assay [2] was < 50%.
The like results for `CNC(=O)[C@@H]1C[C@@H](O)CN1C(=O)[C@@H](c1cc(N2CC3(CN(c4ccc5nnc(-c6ccccc6O)cc5c4)C3)C2)no1)C(C)C` [Compound 181, (2S,4R)-4-hydroxy-1-((R)-2-(3-(6-(3-(2-hydroxyphenyl)cinnolin-6-yl)-2,6-diazaspiro[3.3]heptan-2-yl)isoxazol-5-yl)-3-methylbutanoyl)-N-methylpyrrolidine-2-carboxamide] were, in that order, > 0.1 µM, “A (“A” indicates maximum degradation ≥75%)” and < 50%.
